# Laboratory results taken from PMC2362906, “Effects of new 17α-hydroxylase/C17,20-lyase inhibitors on LNCaP prostate cancer cell growth in vitro and in vivo” (British Journal of Cancer, 1999).
# Entries after “also recorded” stand apart in the source; their conditions may differ.
# Experiments:
# serum testosterone = experiment: Serum testosterone (RIA) in SCID mice; assay type: in vivo, male SCID mice; conditions: Table 2, first experiment, 28 days of treatment, 50 mg kg-1 day-1; control 1.043
# Text: (§1) Prostate cancer is the most common malignancy and the second leading cause of cancer-related deaths among men in the US and the UK (Shibata et al, 1998). […] Steroidal 17-hydroxylase/C17,20 -lyase (P450c17) (EC 1.14.99.0) was selected as the target enzyme for inhibition, as this is a key regulatory enzyme of androgen synthesis. P450c17 catal- yses two sequential reactions in the steroid biosynthetic pathway and converts pregnenolone and progesterone to the C-19 andro- gens, dehydroepiandrosterone and androstenedione respectively. This enzyme has an identical amino acid sequence in testicular and adrenal tissues (Chung et al, 1987). […] In order to evaluate the effectiveness of these inhibitors we developed a multi-step system, which utilized the LNCaP human prostate cancer cell line. LNCaP cells remain the only androgen receptor (AR)-positive prostate cancer cell line, that can be readily grown in tissue culture (Horoszewicz et al, 1983). These cells respond to androgens with increased cell proliferation and elevated expression of prostate specific antigen (PSA) (Berns et al, 1993). LNCaP cells at early passages are not only androgen-responsive, but also androgen- dependent (Pousette et al, 1997). This is similar to the situation in most tumours of prostatic cancer patients, which are initially highly responsive and dependent on androgens. […] Therefore, we employed LNCaP cells as a model for evaluating the effectiveness of our new inhibitors of androgen synthesis. In this study the compounds selected for evaluation were two groups of azolyl steroids. […] Here we report on the application of LNCaP-CYP17-transfected cells for determining the inhibitory potencies of the new compounds against the P450c17 enzyme. […] We designed and evaluated two groups of azolyl steroids: 5-non-competitive inhibitors (5NCIs), VN/63-1, VN/85-1, VN/87-1 and their corresponding 4 derivatives (4NCIs), VN/107-1, VN/108-1 and VN/109-1. The human P450c17 gene was transfected into LNCaP human prostate cancer cells, and the resultant LNCaP- CYP17 cells were utilized to evaluate the inhibitory potency of the new azolyl steroids. […] We further evaluated our inhibitors in male severe combined immuno- deficient mice bearing LNCaP tumour xenografts. […] We also utilized wild-type LNCaP prostatic carcinoma cells for evaluating the direct effects of new azolyl steroids on proliferation of these cells in vitro and in vivo. MATERIALS AND METHODS Materials The human prostate cancer cell line LNCaP was obtained from the American Type Culture Collection (Rockville, MD, USA). RPMI- 1640 medium, trypsin-EDTA (0.25%/0.02%), penicillin/strepto- mycin (P/S), geniticin (G418), and LipofectAMINE were from Gibco-BRL (Grand Island, NY, USA). Fetal bovine serum (FBS) was obtained from Summit Biotechnology Inc. (Fort Collins, CO, USA) and steroid-free FBS was prepared as described previously (Klus et al, 1996). Phenol red free IMEM and trypsin-versine were purchased from Biofluids Inc. (Rockville, MD, USA). Chloroform and acetonitrile were purchased from JT Baker, Inc (Phillipsburg, NJ, USA). Hydroxypropyl cellulose (HPC) was purchased from Sigma Chemical Co. (St Louis, MO, USA). The PSA enzyme- linked immunusorbent assay (ELISA) kit was from DSL Inc. (Webster, TX, USA). Matrigel was generously supplied by Dr Hynda Kleinman (NIH, Bethesda, MD, USA). Inhibitors of androgen synthesis: VN/63-1, VN/85-1, VN/87-1, VN/107-1, VN/108-1 and VN/109-1 were synthesized in our labo- ratory as previously described (Njar et al, 1998). […] Metribolone [17-methyl-3 H]-R1881 ([3 H]-R1881: specific activity 86 Ci mmol-1 ) was purchased from Dupont NEN (Boston, MA, USA).
# [1] = biological target: T1, human 17α-hydroxylase/C17,20-lyase (P450c17) expressed in LNCaP-CYP17 cells (Homo sapiens, UniProt P05093); experiment: [3H]-acetic acid releasing assay (AARA) with LNCaP-CYP17 cells; assay type: cell-based; conditions: LNCaP-CYP17 cells, 7 μM [21-3H]17-OHP5, 16 h; mean ± s.e.m., three experiments
# T1 sequence (P05093 9-508 limits assumed): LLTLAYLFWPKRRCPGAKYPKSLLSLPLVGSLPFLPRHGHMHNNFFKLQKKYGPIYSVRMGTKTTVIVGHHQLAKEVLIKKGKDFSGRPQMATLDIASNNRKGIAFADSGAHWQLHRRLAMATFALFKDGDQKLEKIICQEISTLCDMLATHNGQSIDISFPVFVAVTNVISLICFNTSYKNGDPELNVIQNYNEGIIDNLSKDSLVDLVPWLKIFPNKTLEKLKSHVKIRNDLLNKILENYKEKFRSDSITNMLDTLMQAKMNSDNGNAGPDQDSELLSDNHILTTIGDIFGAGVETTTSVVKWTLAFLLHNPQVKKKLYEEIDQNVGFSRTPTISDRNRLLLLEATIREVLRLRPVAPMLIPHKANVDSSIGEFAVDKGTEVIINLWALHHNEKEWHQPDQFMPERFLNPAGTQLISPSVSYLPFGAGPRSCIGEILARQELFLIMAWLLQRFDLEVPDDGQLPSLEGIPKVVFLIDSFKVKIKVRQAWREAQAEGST
# LNCaP cells [2] = experiment: LNCaP cell growth in steroid-free medium; assay type: cell-based, human; conditions: steroid-free medium
# Text: Prostate cancer is the most common malignancy and the second leading cause of cancer-related deaths among men in the US and the UK (Shibata et al, 1998). […] Steroidal 17-hydroxylase/C17,20 -lyase (P450c17) (EC 1.14.99.0) was selected as the target enzyme for inhibition, as this is a key regulatory enzyme of androgen synthesis. P450c17 catal- yses two sequential reactions in the steroid biosynthetic pathway and converts pregnenolone and progesterone to the C-19 andro- gens, dehydroepiandrosterone and androstenedione respectively. This enzyme has an identical amino acid sequence in testicular and adrenal tissues (Chung et al, 1987). […] In order to evaluate the effectiveness of these inhibitors we developed a multi-step system, which utilized the LNCaP human prostate cancer cell line. LNCaP cells remain the only androgen receptor (AR)-positive prostate cancer cell line, that can be readily grown in tissue culture (Horoszewicz et al, 1983). These cells respond to androgens with increased cell proliferation and elevated expression of prostate specific antigen (PSA) (Berns et al, 1993). LNCaP cells at early passages are not only androgen-responsive, but also androgen- dependent (Pousette et al, 1997). This is similar to the situation in most tumours of prostatic cancer patients, which are initially highly responsive and dependent on androgens. […] Therefore, we employed LNCaP cells as a model for evaluating the effectiveness of our new inhibitors of androgen synthesis. In this study the compounds selected for evaluation were two groups of azolyl steroids. […] Here we report on the application of LNCaP-CYP17-transfected cells for determining the inhibitory potencies of the new compounds against the P450c17 enzyme. […] We designed and evaluated two groups of azolyl steroids: 5-non-competitive inhibitors (5NCIs), VN/63-1, VN/85-1, VN/87-1 and their corresponding 4 derivatives (4NCIs), VN/107-1, VN/108-1 and VN/109-1. The human P450c17 gene was transfected into LNCaP human prostate cancer cells, and the resultant LNCaP- CYP17 cells were utilized to evaluate the inhibitory potency of the new azolyl steroids. […] We further evaluated our inhibitors in male severe combined immuno- deficient mice bearing LNCaP tumour xenografts. […] We also utilized wild-type LNCaP prostatic carcinoma cells for evaluating the direct effects of new azolyl steroids on proliferation of these cells in vitro and in vivo. MATERIALS AND METHODS Materials The human prostate cancer cell line LNCaP was obtained from the American Type Culture Collection (Rockville, MD, USA). RPMI- 1640 medium, trypsin-EDTA (0.25%/0.02%), penicillin/strepto- mycin (P/S), geniticin (G418), and LipofectAMINE were from Gibco-BRL (Grand Island, NY, USA). […]
# LNCaP tumour xenografts = experiment: LNCaP tumour xenograft growth in male SCID mice; assay type: in vivo; conditions: first experiment
# Text: as §1
# LNCaP cells [3] = experiment: DHT-stimulated wild-type LNCaP cell growth; assay type: cell-based, human; conditions: 0.03 nM DHT, 9 days
# Text: as §1
# serum DHT = experiment: Serum DHT (RIA) in SCID mice; assay type: in vivo, male SCID mice; conditions: Table 2, first experiment, 28 days of treatment, 50 mg kg-1 day-1; control 243.8
# Text: as §1
# serum PSA = experiment: Serum PSA (ELISA) in LNCaP tumour-bearing SCID mice; assay type: in vivo, male SCID mice; conditions: first experiment, 50 mg kg-1 day-1, 28 days
# Text: Prostate cancer is the most common malignancy and the second leading cause of cancer-related deaths among men in the US and the UK (Shibata et al, 1998). […] Steroidal 17-hydroxylase/C17,20 -lyase (P450c17) (EC 1.14.99.0) was selected as the target enzyme for inhibition, as this is a key regulatory enzyme of androgen synthesis. P450c17 catal- yses two sequential reactions in the steroid biosynthetic pathway and converts pregnenolone and progesterone to the C-19 andro- gens, dehydroepiandrosterone and androstenedione respectively. This enzyme has an identical amino acid sequence in testicular and adrenal tissues (Chung et al, 1987). […] In order to evaluate the effectiveness of these inhibitors we developed a multi-step system, which utilized the LNCaP human prostate cancer cell line. LNCaP cells remain the only androgen receptor (AR)-positive prostate cancer cell line, that can be readily grown in tissue culture (Horoszewicz et al, 1983). These cells respond to androgens with increased cell proliferation and elevated expression of prostate specific antigen (PSA) (Berns et al, 1993). LNCaP cells at early passages are not only androgen-responsive, but also androgen- dependent (Pousette et al, 1997). This is similar to the situation in most tumours of prostatic cancer patients, which are initially highly responsive and dependent on androgens. […] Therefore, we employed LNCaP cells as a model for evaluating the effectiveness of our new inhibitors of androgen synthesis. In this study the compounds selected for evaluation were two groups of azolyl steroids. […] Here we report on the application of LNCaP-CYP17-transfected cells for determining the inhibitory potencies of the new compounds against the P450c17 enzyme. […] We designed and evaluated two groups of azolyl steroids: 5-non-competitive inhibitors (5NCIs), VN/63-1, VN/85-1, VN/87-1 and their corresponding 4 derivatives (4NCIs), VN/107-1, VN/108-1 and VN/109-1. The human P450c17 gene was transfected into LNCaP human prostate cancer cells, and the resultant LNCaP- CYP17 cells were utilized to evaluate the inhibitory potency of the new azolyl steroids. […] We further evaluated our inhibitors in male severe combined immuno- deficient mice bearing LNCaP tumour xenografts. […] We also utilized wild-type LNCaP prostatic carcinoma cells for evaluating the direct effects of new azolyl steroids on proliferation of these cells in vitro and in vivo. MATERIALS AND METHODS Materials The human prostate cancer cell line LNCaP was obtained from the American Type Culture Collection (Rockville, MD, USA). RPMI- 1640 medium, trypsin-EDTA (0.25%/0.02%), penicillin/strepto- mycin (P/S), geniticin (G418), and LipofectAMINE were from Gibco-BRL (Grand Island, NY, USA). Fetal bovine serum (FBS) was obtained from Summit Biotechnology Inc. (Fort Collins, CO, USA) and steroid-free FBS was prepared as described previously (Klus et al, 1996). Phenol red free IMEM and trypsin-versine were purchased from Biofluids Inc. (Rockville, MD, USA). Chloroform and acetonitrile were purchased from JT Baker, Inc (Phillipsburg, NJ, USA). Hydroxypropyl cellulose (HPC) was purchased from Sigma Chemical Co. (St Louis, MO, USA). The PSA enzyme- linked immunusorbent assay (ELISA) kit was from DSL Inc. (Webster, TX, USA). Matrigel was generously supplied by Dr Hynda Kleinman (NIH, Bethesda, MD, USA). […]
# [4] = biological target: human prostatic 5-reductase; set-up: method as in Njar et al, 1998; conditions: human prostatic microsomes; reported previously; ref Njar et al, 1998; cited from earlier work
# LNCaP cells [5] = experiment: Testosterone-stimulated wild-type LNCaP cell growth; assay type: cell-based, human
# Text: as §1
# LNCaP androgen receptor = biological target: T2, LNCaP androgen receptor (Homo sapiens, UniProt P10275, T878A); experiment: Androgen receptor binding assay ([3H]R1881 displacement in LNCaP cells); conditions: from growth and binding results
# T2 construct: endogenous in cells; host or cells: LNCaP (wild-type, untransfected)
# T2 sequence (P10275 whole entry T878A): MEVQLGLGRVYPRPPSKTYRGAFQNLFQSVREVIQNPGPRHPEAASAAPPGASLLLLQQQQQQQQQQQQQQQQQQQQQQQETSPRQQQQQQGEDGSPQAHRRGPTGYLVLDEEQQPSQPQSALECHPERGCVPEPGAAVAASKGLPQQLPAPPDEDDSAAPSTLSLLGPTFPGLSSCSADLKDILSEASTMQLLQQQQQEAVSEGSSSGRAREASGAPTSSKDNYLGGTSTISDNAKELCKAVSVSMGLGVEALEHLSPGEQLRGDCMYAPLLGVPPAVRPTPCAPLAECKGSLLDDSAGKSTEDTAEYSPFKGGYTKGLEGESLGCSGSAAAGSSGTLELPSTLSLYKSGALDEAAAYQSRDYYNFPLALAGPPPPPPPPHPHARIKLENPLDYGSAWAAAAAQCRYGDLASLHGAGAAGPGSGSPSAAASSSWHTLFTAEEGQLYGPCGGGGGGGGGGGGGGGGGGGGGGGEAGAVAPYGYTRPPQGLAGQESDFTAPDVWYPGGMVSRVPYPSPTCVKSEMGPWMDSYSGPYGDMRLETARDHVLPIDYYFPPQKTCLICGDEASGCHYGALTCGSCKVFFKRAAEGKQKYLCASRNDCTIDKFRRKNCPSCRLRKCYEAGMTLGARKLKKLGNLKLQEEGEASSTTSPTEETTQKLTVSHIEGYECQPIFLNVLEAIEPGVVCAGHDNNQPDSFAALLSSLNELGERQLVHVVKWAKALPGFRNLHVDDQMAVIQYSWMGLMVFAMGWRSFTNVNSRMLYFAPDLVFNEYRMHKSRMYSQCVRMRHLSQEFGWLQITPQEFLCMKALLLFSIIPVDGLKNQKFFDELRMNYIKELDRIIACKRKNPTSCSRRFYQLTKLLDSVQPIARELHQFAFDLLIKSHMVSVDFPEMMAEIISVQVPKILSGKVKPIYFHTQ
# Text: Prostate cancer is the most common malignancy and the second leading cause of cancer-related deaths among men in the US and the UK (Shibata et al, 1998). […] Steroidal 17-hydroxylase/C17,20 -lyase (P450c17) (EC 1.14.99.0) was selected as the target enzyme for inhibition, as this is a key regulatory enzyme of androgen synthesis. P450c17 catal- yses two sequential reactions in the steroid biosynthetic pathway and converts pregnenolone and progesterone to the C-19 andro- gens, dehydroepiandrosterone and androstenedione respectively. This enzyme has an identical amino acid sequence in testicular and adrenal tissues (Chung et al, 1987). […] In order to evaluate the effectiveness of these inhibitors we developed a multi-step system, which utilized the LNCaP human prostate cancer cell line. LNCaP cells remain the only androgen receptor (AR)-positive prostate cancer cell line, that can be readily grown in tissue culture (Horoszewicz et al, 1983). […] We designed and evaluated two groups of azolyl steroids: 5-non-competitive inhibitors (5NCIs), VN/63-1, VN/85-1, VN/87-1 and their corresponding 4 derivatives (4NCIs), VN/107-1, VN/108-1 and VN/109-1. […] We further evaluated our inhibitors in male severe combined immuno- deficient mice bearing LNCaP tumour xenografts. […]
smiles,measurement,setting,value
C[C@]12CCC(=O)C=C1CCC1C2CC[C@]2(C)C(n3ccnc3)=CCC12 (stereo partly drawn) [VN/108-1],Serum Testosterone,serum testosterone,0.081 ng/mL
same,IC50,[1],2.96 ± 0.78 nM
same,Effect on LNCaP cell growth in absence of androgens,LNCaP cells [2],stimulated cell growth in absence of androgens
same,Inhibition of LNCaP tumour growth (tumour volume),"LNCaP tumour xenografts; 50 mg kg-1 day-1, 4 weeks",9%
same,Effect on tumour growth or tumour weights,"LNCaP tumour xenografts; 50 mg kg-1 day-1, 28 days",no significant effects on tumour growth or tumour weights
same,Concentration that completely blocked DHT stimulation,LNCaP cells [3],5.0 µM
same,Serum DHT,serum DHT,122.1 pg/mL
same,Serum PSA levels versus control,serum PSA,lowest levels of serum PSA; also recorded: significantly lower
same,IC50,[4],142 nM
same,Concentration that completely inhibited the growth stimulatory effect of testosterone,"LNCaP cells [5]; 0.1 nM testosterone, 9 days",5 µM
same,Effect on growth-stimulating effects of androgens,"LNCaP cells [5]; wild-type LNCaP cells, testosterone or DHT",blocked the growth-stimulating effects of androgens
same,Character at LNCaP AR,LNCaP androgen receptor,partial agonist of LNCaP AR
